# No end group written: not given here.
# Key:
# [1] = molecular target: HLA-B*0702 (Homo sapiens, UniProt P01889); assay: biochemical
# [2] = molecular target: B*3501 (Homo sapiens, UniProt P01889, A329T/A93T/A95T/C349S/D201E/D98Y/E176V/E187L/E204Q/E69T/I218V/K202T/L119I/Q94N/R155S/R180L/S121R/S35A/S48A/T118I/V127L/V306I/V36M/Y140S/Y91F); assay: biochemical
# [3] = molecular target: B*5301 (Homo sapiens, UniProt P01889, A329T/A93T/A95T/C349S/D201E/D98Y/E176V/E187L/E204Q/E69T/G107R/I218V/K202T/L105A/L119I/N104I/Q94N/R106L/R155S/R180L/S101N/S121R/S35A/S48A/T118I/V127L/V306I/V36M/Y140S/Y91F); assay: biochemical
# [4] = molecular target: B*5401 (Homo sapiens, UniProt P01889, A329T/C349S/D138N/D201E/E176V/E187T/E204Q/E69G/I76V/K202T/L119W/R155S/R180L/S121T/S35A/S48A/V127L/V306I/V36M/Y140L); assay: biochemical
# [5] = molecular target: DRB1*0301 (DR3) (Homo sapiens, UniProt P01903+P01911, A100K/A102G/A103R/A169T/F55Y/I96L/K41T/L162R/M171V/P40S/Q125H/Q178H/Q39Y/R42S/S66N/T106N/T262R/W38E/Y61H); format: binding
# Chain of DRB1*0301 (DR3) (P01903 26-254 limits assumed, other chains not shown): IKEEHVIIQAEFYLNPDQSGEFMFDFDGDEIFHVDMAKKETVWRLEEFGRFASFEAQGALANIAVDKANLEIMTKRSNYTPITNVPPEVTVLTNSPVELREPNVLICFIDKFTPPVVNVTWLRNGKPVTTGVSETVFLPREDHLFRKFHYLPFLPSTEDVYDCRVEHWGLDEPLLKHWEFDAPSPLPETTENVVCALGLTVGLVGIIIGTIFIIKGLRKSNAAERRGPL
Molecule,IC50 [1] [nM],IC50 [2] [nM],IC50 [3] [nM],IC50 [4] [nM],IC50 [5] [nM]
CC[C@H](C)[C@H](NC(=O)[C@@H](NC(=O)[C@@H](NC(=O)[C@@H](NC(=O)[C@@H](NC(=O)[C@H](CC(C)C)NC(=O)[C@@H](NC(=O)[C@@H]1CCCN1C(=O)[C@@H](N)Cc1ccccc1)[C@@H](C)CC)[C@@H](C)O)[C@@H](C)CC)[C@@H](C)CC)[C@@H](C)O)C(=O)O [p53.249.F119],74,36,4,1.8,
CC(C)C[C@H](NC(=O)[C@H](CCCCN)NC(=O)[C@H](Cc1c[nH]c2ccccc12)NC(=O)[C@@H](N)CC(C)C)C(=O)N[C@@H](CC(C)C)C(=O)N1CCC[C@H]1C(=O)N[C@@H](CCC(=O)O)C(=O)N[C@@H](CC(N)=O)C(=O)N[C@@H](CC(N)=O)C(=O)N[C@H](C(=O)N[C@@H](CC(C)C)C(=O)N[C@@H](CO)C(=O)N1CCC[C@H]1C(=O)N[C@@H](CC(C)C)C(=O)N1CCC[C@H]1C(=O)O)C(C)C,,,,,> 10000
CC[C@H](C)[C@H](NC(=O)[C@@H]1CCCN1C(=O)[C@H](Cc1c[nH]c2ccccc12)NC(=O)[C@H](CO)NC(=O)[C@@H]1CCCN1C(=O)[C@H](C)NC(=O)[C@@H]1CCCN1C(=O)[C@H](C)NC(=O)[C@@H]1CCCN1C(=O)[C@@H](N)Cc1ccccc1)C(=O)O [p53.84.F1110],13,,42,1.2,
CC[C@H](C)[C@H](NC(=O)[C@@H]1CCCN1C(=O)[C@H](C)NC(=O)[C@H](C)NC(=O)[C@@H]1CCCN1C(=O)[C@@H](NC(=O)[C@@H]1CCCN1C(=O)[C@H](C)NC(=O)[C@H](C)NC(=O)[C@@H]1CCCN1C(=O)[C@@H](N)Cc1ccccc1)[C@@H](C)O)C(=O)O [p53.76.F1111],,,3210,15,
CC[C@H](C)[C@H](NC(=O)[C@H](C)NC(=O)[C@@H](N)CCSC)C(=O)N[C@@H](Cc1ccc(O)cc1)C(=O)N[C@@H](CCCCN)C(=O)N[C@@H](CCC(N)=O)C(=O)N[C@@H](CO)C(=O)N[C@@H](CCC(N)=O)C(=O)N[C@@H](Cc1c[nH]cn1)C(=O)N[C@@H](CCSC)C(=O)N[C@H](C(=O)N[C@@H](CCC(=O)O)C(=O)N[C@H](C(=O)N[C@H](C(=O)N[C@@H](CCCNC(=N)N)C(=O)O)C(C)C)C(C)C)[C@@H](C)O,,,,,> 10000
CC[C@H](C)[C@H](NC(=O)[C@@H]1CCCN1C(=O)[C@@H]1CCCN1C(=O)[C@H](C)NC(=O)[C@H](C)NC(=O)[C@H](CCC(=O)O)NC(=O)[C@@H]1CCCN1C(=O)[C@H](CCSC)NC(=O)[C@H](CCCNC(=N)N)NC(=O)[C@@H]1CCCN1C(=O)[C@@H](N)Cc1ccccc1)C(=O)O [p53.63.F1111],,5540,5470,2.9,
CC[C@H](C)[C@H](NC(=O)[C@H](CO)NC(=O)[C@@H]1CCCN1C(=O)[C@H](C)NC(=O)[C@@H]1CCCN1C(=O)[C@H](C)NC(=O)[C@@H]1CCCN1C(=O)[C@@H](N)Cc1ccccc1)C(=O)O [p53.84.F118],,327,131,6.7,
C[C@H](NC(=O)[C@H](CCC(=O)O)NC(=O)[C@H](CC(=O)O)NC(=O)[C@@H]1CCCN1C(=O)CNC(=O)[C@@H]1CCCN1C(=O)[C@H](CC(=O)O)NC(=O)[C@H](CCC(=O)O)NC(=O)[C@@H](NC(=O)[C@H](Cc1ccccc1)NC(=O)[C@H](Cc1c[nH]c2ccccc12)NC(=O)[C@H](CCC(N)=O)NC(=O)[C@@H](N)CCC(=O)O)[C@@H](C)O)C(=O)N1CCC[C@H]1C(=O)N[C@@H](CCCNC(=N)N)C(=O)O,,,,,> 10000
CC[C@H](C)[C@H](NC(=O)[C@@H]1CCCN1C(=O)[C@@H](NC(=O)[C@@H]1CCCN1C(=O)[C@H](C)NC(=O)[C@H](C)NC(=O)[C@@H]1CCCN1C(=O)[C@@H](N)Cc1ccccc1)[C@@H](C)O)C(=O)O [p53.76.F118],128,655,,3.1,
CC[C@H](C)[C@H](NC(=O)[C@@H](NC(=O)[C@@H](NC(=O)[C@H](CS)NC(=O)[C@H](CC(=O)O)NC(=O)[C@H](CO)NC(=O)CNC(=O)[C@@H](NC(=O)[C@H](CCC(=O)O)NC(=O)[C@@H]1CCCN1C(=O)[C@@H]1CCCN1)C(C)C)[C@@H](C)O)[C@@H](C)O)C(=O)N[C@@H](Cc1c[nH]cn1)C(=O)N[C@@H](Cc1ccc(O)cc1)C(=O)N[C@@H](CC(N)=O)C(=O)N[C@@H](Cc1ccc(O)cc1)C(=O)O,,,,,7900
FPAAPTPAI [p53.76.F119],2.6,12,7.2,2.5,
CC(C)C[C@H](NC(=O)[C@@H]1CCCN1C(=O)[C@H](Cc1c[nH]c2ccccc12)NC(=O)[C@H](CO)NC(=O)[C@@H]1CCCN1C(=O)[C@@H](N)Cc1ccccc1)C(=O)N[C@@H](CO)C(=O)N[C@@H](CO)C(=O)N[C@@H](CO)C(=O)N[C@H](C(=O)O)C(C)C [p53.88.F1],3.2,72,93,0.3,
CC[C@H](C)[C@H](NC(=O)[C@H](C)NC(=O)[C@@H]1CCCN1C(=O)[C@H](C)NC(=O)[C@@H]1CCCN1C(=O)[C@H](C)NC(=O)[C@@H](NC(=O)[C@@H]1CCCN1C(=O)[C@@H]1CCCN1C(=O)[C@@H](N)Cc1ccccc1)C(C)C)C(=O)O [p53.70.F1110],290,,2910,63,
CC[C@H](C)[C@H](NC(=O)[C@@H]1CCCN1C(=O)[C@@H](NC(=O)[C@@H]1CCCN1C(=O)[C@H](C)NC(=O)[C@H](C)NC(=O)[C@@H]1CCCN1C(=O)[C@H](C)NC(=O)[C@@H]1CCCN1C(=O)[C@@H](N)Cc1ccccc1)[C@@H](C)O)C(=O)O [p53.74.F1110],1.5,277,127,5.3,
CC[C@H](C)[C@H](NC(=O)[C@H](CO)NC(=O)[C@H](CO)NC(=O)[C@H](CO)NC(=O)[C@H](CC(C)C)NC(=O)[C@@H]1CCCN1C(=O)[C@H](Cc1c[nH]c2ccccc12)NC(=O)[C@H](CO)NC(=O)[C@@H]1CCCN1C(=O)[C@@H](N)Cc1ccccc1)C(=O)O [p53.88.F1110],5.5,100,8.5,2.4,
CC[C@H](C)[C@H](NC(=O)[C@H](C)NC(=O)[C@H](CCC(N)=O)NC(=O)[C@H](CO)NC(=O)[C@@H]1CCCN1C(=O)[C@H](CC(C)C)NC(=O)[C@@H]1CCCN1C(=O)[C@@H](N)Cc1ccccc1)C(=O)O [p53.33.F1],,720,,83,
CC(C)C[C@H](NC(=O)[C@@H]1CCCN1C(=O)[C@H](Cc1c[nH]c2ccccc12)NC(=O)[C@H](CO)NC(=O)[C@@H]1CCCN1C(=O)[C@H](C)NC(=O)[C@@H]1CCCN1C(=O)[C@@H](N)Cc1ccccc1)C(=O)O [p53.86.F1],10,3.1,4,9.1,
FPAPSWPI [p53.86.F118],120,4.8,3.3,1.6,
CC(C)C[C@H](NC(=O)[C@@H]1CCCN1C(=O)[C@H](Cc1c[nH]c2ccccc12)NC(=O)[C@H](CO)NC(=O)[C@@H]1CCCN1C(=O)[C@H](C)NC(=O)[C@@H]1CCCN1C(=O)[C@H](C)NC(=O)[C@@H]1CCCN1C(=O)[C@@H](N)Cc1ccccc1)C(=O)O [p53.84.F1],,5.1,,1.7,
CC[C@H](C)[C@H](NC(=O)[C@@H]1CCCN1C(=O)[C@H](C)NC(=O)[C@H](C)NC(=O)[C@@H]1CCCN1C(=O)[C@@H](NC(=O)[C@@H]1CCCN1C(=O)[C@@H](N)Cc1ccccc1)[C@@H](C)O)C(=O)O [p53.79.F118],90,5140,6200,7.7,
FPILTIITL [p53.249.F1],6.5,8,7.2,5,

# Source: patent US20040048790A1, “Inducing cellular immune responses to p53 using peptide and nucleic acid compositions” (priority 1999, published 2004)
